# The source made the active and inactive calls. No cut-off for these calls is given here.
# Legend:
# HCT-15 [1] = assay: Anticancer activity against paclitaxel-resistant human HCT15 cells xenografted in BALB/c athymic mouse assessed as tumor growth inhibition at 40 mg/kg, iv administered thrice every 4 days; type: functional, organism-based
# HCT-15 [2] = assay: Anticancer activity against paclitaxel-resistant human HCT15 cells xenografted in BALB/c athymic mouse assessed as tumor volume at 40 mg/kg, iv administered thrice every 4 days measured on day 1 (reference value: 110 +/- 11 mm3); type: functional
# HCT-15 [3] = assay: Anticancer activity against paclitaxel-resistant human HCT15 cells xenografted in BALB/c athymic mouse assessed as tumor volume at 40 mg/kg, iv administered thrice every 4 days measured on day 3 (reference value: 180 +/- 36 mm3); type: functional
# HCT-15 [4] = assay: Anticancer activity against paclitaxel-resistant human HCT15 cells xenografted in BALB/c athymic mouse assessed as tumor volume at 40 mg/kg, iv administered thrice every 4 days measured on day 5 (reference value: 329 +/- 45 mm3); type: functional
# HCT-15 [5] = assay: Anticancer activity against paclitaxel-resistant human HCT15 cells xenografted in BALB/c athymic mouse assessed as tumor volume at 40 mg/kg, iv administered thrice every 4 days measured on day 7 (reference value: 495 +/- 109 mm3); type: functional
# HCT-15 [6] = assay: Anticancer activity against paclitaxel-resistant human HCT15 cells xenografted in BALB/c athymic mouse assessed as tumor volume at 40 mg/kg, iv administered thrice every 4 days measured on day 9 (reference value: 546 +/- 87 mm3); type: functional
# HCT-15 [7] = assay: Anticancer activity against paclitaxel-resistant human HCT15 cells xenografted in BALB/c athymic mouse assessed as tumor volume at 40 mg/kg, iv administered thrice every 4 days measured on day 12 (reference value: 779 +/- 144 mm3); type: functional
# HCT-15 [8] = assay: Anticancer activity against paclitaxel-resistant human HCT15 cells xenografted in BALB/c athymic mouse assessed as tumor volume at 20 mg/kg, ip administered twice a day for 12 days measured on day 1 (reference value: 110 +/- 11 mm3); type: functional
# HCT-15 [9] = assay: Anticancer activity against paclitaxel-resistant human HCT15 cells xenografted in BALB/c athymic mouse assessed as tumor volume at 20 mg/kg, ip administered twice a day for 12 days measured on day 3 (reference value: 180 +/- 36 mm3); type: functional
# HCT-15 [10] = assay: Anticancer activity against paclitaxel-resistant human HCT15 cells xenografted in BALB/c athymic mouse assessed as tumor volume at 20 mg/kg, ip administered twice a day for 12 days measured on day 5 (reference value: 329 +/- 45 mm3); type: functional
# HCT-15 [11] = assay: Anticancer activity against paclitaxel-resistant human HCT15 cells xenografted in BALB/c athymic mouse assessed as tumor volume at 20 mg/kg, ip administered twice a day for 12 days measured on day 7 (reference value: 495 +/- 109 mm3); type: functional
# HCT-15 [12] = assay: Anticancer activity against paclitaxel-resistant human HCT15 cells xenografted in BALB/c athymic mouse assessed as tumor volume at 20 mg/kg, ip administered twice a day for 12 days measured on day 9 (reference value: 546 +/- 87 mm3); type: functional
# HCT-15 [13] = assay: Anticancer activity against paclitaxel-resistant human HCT15 cells xenografted in BALB/c athymic mouse assessed as tumor volume at 20 mg/kg, ip administered twice a day for 12 days measured on day 12 (reference value: 779 +/- 144 mm3); type: functional
# BJ [14] = assay: Induction of mitosis in transformed human BJ cells assessed as increase in pH3 Ser10 expression at 5 uM after 24 hrs by Western blot analysis relative to control; type: functional
# BJ [15] = assay: Induction of autophagy in transformed human BJ cells assessed as increase in LC3-2 to LC3-1 ratio at 5 uM after 24 hrs by Western blot analysis relative to control; type: functional
# [16] = Prodrug conversion in pH 7.4 10% FBS assessed as formation of A131 measured at 1 hr by LC-MS/MS analysis relative to parent compound; type: ADME; conditions: cattle, pH 7.4, 1 h
# [17] = Prodrug conversion in pH 7.4 10% FBS assessed as formation of A131 measured at 2 hrs by LC-MS/MS analysis relative to parent compound; type: ADME; conditions: cattle, pH 7.4, 2 h
# [18] = Prodrug conversion in pH 7.4 10% FBS assessed as formation of A131 measured at 3 hrs by LC-MS/MS analysis relative to parent compound; type: ADME; conditions: cattle, pH 7.4, 3 h
# [19] = Prodrug conversion in pH 7.4 10% FBS assessed as formation of A131 measured at 6 hrs by LC-MS/MS analysis relative to parent compound; type: ADME; conditions: cattle, pH 7.4, 6 h
# [20] = Prodrug conversion in pH 7.4 10% FBS assessed as formation of A131 by measuring apparent half life; type: ADME; conditions: cattle
# [21] = Prodrug conversion in pH 7.4 phosphate buffer saline assessed as formation of A131 by measuring apparent half life; type: ADME
# [22] = Prodrug conversion in human plasma assessed as formation of A131 by measuring apparent half life; type: ADME, cell-free
# [23] = Prodrug conversion in mouse plasma assessed as formation of A131 by measuring apparent half life; type: ADME, cell-free
# [24] = Half life in simulated gastric fluid TS; type: ADME
# [25] = Half life in simplified simulated gastric fluid; type: ADME
# [26] = Stability in simulated gastric fluid TS assessed as parent compound remaining at 24 hrs; type: ADME; conditions: read-out: Stability
# [27] = Stability in simplified simulated gastric fluid assessed as parent compound remaining at 24 hrs; type: ADME; conditions: read-out: Stability
# [28] = Stability in human plasma assessed as compound hydrolysis measured within 15 mins; type: ADME, cell-free; conditions: read-out: Drug degradation
# [29] = Stability in acidic pH assessed as compound hydrolysis; type: physicochemical
# HCT-15 [30] = assay: Anticancer activity against paclitaxel-resistant human HCT15 cells xenografted in BALB/c athymic mouse assessed as tumor growth inhibition at 20 mg/kg, ip administered twice a day for 12 days; type: functional, organism-based
smiles,measurement,setting,value
CC(=O)O[C@H]1C(=O)[C@@]2(C)[C@H]([C@H](OC(=O)c3ccccc3)[C@]3(O)C[C@H](OC(=O)[C@H](O)[C@@H](NC(=O)c4ccccc4)c4ccccc4)C(C)=C1C3(C)C)[C@]1(OC(C)=O)CO[C@@H]1C[C@@H]2O [PACLITAXEL],TGI,HCT-15 [1],Active
same,Activity,HCT-15 [2],119 mm3
same,Activity,HCT-15 [3],152 mm3
same,Activity,HCT-15 [4],288 mm3
same,Activity,HCT-15 [5],321 mm3
same,Activity,HCT-15 [6],409 mm3
same,Activity,HCT-15 [7],638 mm3
Cl.N#C/C(=C\c1cccc2cnccc12)c1c[nH]c2ccccc12,Activity,HCT-15 [8],116 mm3
same,Activity,HCT-15 [9],125 mm3
same,Activity,HCT-15 [10],153 mm3
same,Activity,HCT-15 [11],204 mm3
same,Activity,HCT-15 [12],225 mm3
same,Activity,HCT-15 [13],289 mm3
CC(=O)NCCC(=O)n1cc(/C(C#N)=C/c2cccc3cnccc23)c2ccccc21,fold change (FC),BJ [14],2.8
same,fold change (FC),BJ [15],2.3
N#C/C(=C\c1cccc2cnccc12)c1c[nH]c2ccccc12 [listing 1 of 2 here],fold change (FC),BJ [14],7.3
same,fold change (FC),BJ [15],5
N#C/C(=C\c1cccc2cnccc12)c1cn(C(=O)C2CCNCC2)c2ccccc12,fold change (FC),BJ [14],10.1
same,fold change (FC),BJ [15],7.3
same,fold change (FC),[16],7.03
same,fold change (FC),[17],13.17
same,fold change (FC),[18],14.48
same,fold change (FC),[19],16.5
same,t1/2(app),[20],1.14 h
same,t1/2(app),[21],2.58 h
same,t1/2(app),[22],4.2 min
same,t1/2(app),[23],0.208 h
same,half-life,[24],> 24 h
same,half-life,[25],> 24 h
same,remaining at 24 h,[26],75%
same,remaining at 24 h,[27],75%
same,metabolised at 0.25 h,[28],> 90%
same,Stability,[29],Stable
COCCOCC(=O)n1cc(/C(C#N)=C/c2cccc3cnccc23)c2ccccc21,fold change (FC),BJ [14],12.8
same,fold change (FC),BJ [15],4.1
CC(C)(C)OC(=O)NCCC(=O)n1cc(/C(C#N)=C/c2cccc3cnccc23)c2ccccc21,fold change (FC),BJ [14],4.8
same,fold change (FC),BJ [15],3.9
N#C/C(=C\c1cccc2cnccc12)c1c[nH]c2ccccc12 [listing 2 of 2 here],TGI,HCT-15 [30],Active
CCN(CC)C(=O)n1cc(/C(C#N)=C/c2cccc3cnccc23)c2ccccc21,fold change (FC),BJ [14],0.6
same,fold change (FC),BJ [15],0.9
